Results as given in US6638933B2, “Bicyclic imidazo-3-yl-amine derivatives” (Gruenenthal GmbH, priority 1999, dated 2003).

Tested on: phenylquinone-induced writhing in mice
Test: Analgesia test in the writhing test in mice (phenylquinone-induced writhing)
Format: in vivo
Conditions: male NMRI mice, phenylquinone i.p. ten minutes after substance
Description: Analgesia Test in the Writhing Test in Mice
The analgesic activity was investigated in the phenylquinone-induced writhing in mice (modified according to I. C. Hendershot, J. Forsaith, J. Pharmacol. Exp. Ther. 125, 237-240 (1959)). Male NMRI mice weighing 25-30 g were used. Groups of 10 animals per substance dose received 0.3 ml/mouse of a 0.02% aqueous solution of phenylquinone (phenylbenzoquinone, Sigma, Deisenhofen; solution prepared with the addition of 5% ethanol and storage in a water-bath at 45° C.) administered intraperitoneally ten minutes after intravenous or subcutaneous administration of the test substances. The animals were placed individually in observation cages. The number of pain-induced extension movements (so-called writhing reactions=straightening of the body with stretching out of the hind extremities) 5-20 minutes after administration of the phenylquinone was counted by means of a push-button counter. Animals which receive only physiological saline solution were also run as a control. The substances were tested in the standard dosage of 10 mg/kg intravenously or 21.5 mg/kg subcutaneously. The percentage inhibition (% inhibition) of the writhing reaction by a substance was calculated in accordance with the following equation: [formula]

| SMILES | % inhibition of the writhing reaction at 10 mg/kg intravenously (writhing counted 5-20 minutes) [%] | also measured |
| --- | --- | --- |
| CCOP(=O)(CNc1c(-c2ccccc2)nc2ccccn12)OCC [Example 12, [(2-Phenyl-imidazo[1,2-a]pyridin-3-ylamino)-methyl]-phosphonic acid diethyl ester] | 90 |  |
| CC(C)(C)Nc1c(C(C)(C)C)nc2ccccn12 [Example 13, tert-Butyl-(2-tert-butyl-imidazo[1,2-a]pyridin-3-yl)-amine] |  | % inhibition of the writhing reaction, intravenously, at 2.15 mg/kg (2.15 mg/kg (stated in cell) in the intravenous column): 86 at 2.15 mg/kg % |
| c1coc(-c2nc3ccccn3c2NC2CCCCC2)c1 [Example 20, Cyclohexyl-(2-furan-2-yl-imidazo[1,2-a]pyridin-3-yl)-amine] | 43 |  |
| CC(C)(C)Nc1c(-c2cccnc2)nc2ccccn12 [Example 21, tert-Butyl-(2-pyridin-3-yl-imidazo[1,2-a]pyridin-3-yl)-amine] |  | % inhibition of the writhing reaction at 21.5 mg/kg subcutaneously (21.5 mg/kg subcutaneously, writhing counted 5-20 minutes): 80% |
| CC(C)(C)Nc1c(-c2ccccn2)nc2ccccn12 [Example 22, tert-Butyl-(2-pyridin-2-yl-imidazo[1,2-a]pyridin-3-yl)-amine] | 53 |  |
| CC(C)(C)Nc1c(-c2cccs2)nc2ccccn12 [Example 23, tert-Butyl-(2-thiophen-2-yl-imidazo[1,2-a]pyridin-3-yl)-amine] | 62 |  |
| Cc1nc2ccccn2c1NC1CCCCC1 [Example 24, Cyclohexyl-(2-methyl-imidazo[1,2-a]pyridin-3-yl)-amine] | 56 |  |
